Assay [1] addresses T1, human ALDH9A1 (HsALDH9A1) (Homo sapiens, UniProt P49189).
T1 construct: full-length 494-residue protein, His-tag kept (pCDFDuet, BamHI/XhoI), recombinant from E. coli; silent polymorphism at Ile110 codon
The assay is described as follows: microscale thermophoresis, RED-tris-NTA labelled His-tagged enzyme. Type of assay: binding. The text has this: microscale thermophoresis, RED-tris-NTA labelled His-tagged enzyme on human ALDH9A1 (HsALDH9A1)
A general note: In MST a laser heats a spot of the sample, and binding alters the fluorescence response.

For assay [2], the target named is T1, human ALDH9A1 (HsALDH9A1). The assay is described as follows: NADH formation at […] nm, partial substrate inhibition fit. Format: biochemical. Particulars: substrate inhibition constant; 1 mM NAD+, 150 mM sodium pyrophosphate pH 7.5, 30 °C.
The target in assay [3] is T1, human ALDH9A1 (HsALDH9A1). The assay is described as follows: nanoDSF (Tycho NT.[…]). Particulars: 150 mM Tris/HCl pH 7.5, apoenzyme reference 69.5 °C. Format: binding. (DSF heats the sample and reads unfolding from a dye or from intrinsic fluorescence.)
Assay [4] concerns the target T1, human ALDH9A1 (HsALDH9A1). Kind of assay: microscale thermophoresis. Format: binding.

One may read the Kd as the free concentration of one partner at which half of the binding sites on the other are occupied at equilibrium, for simple one-to-one binding. A word on the Tm: it is the temperature at which the thermal transition is half complete.

T1 sequence (P49189 whole entry): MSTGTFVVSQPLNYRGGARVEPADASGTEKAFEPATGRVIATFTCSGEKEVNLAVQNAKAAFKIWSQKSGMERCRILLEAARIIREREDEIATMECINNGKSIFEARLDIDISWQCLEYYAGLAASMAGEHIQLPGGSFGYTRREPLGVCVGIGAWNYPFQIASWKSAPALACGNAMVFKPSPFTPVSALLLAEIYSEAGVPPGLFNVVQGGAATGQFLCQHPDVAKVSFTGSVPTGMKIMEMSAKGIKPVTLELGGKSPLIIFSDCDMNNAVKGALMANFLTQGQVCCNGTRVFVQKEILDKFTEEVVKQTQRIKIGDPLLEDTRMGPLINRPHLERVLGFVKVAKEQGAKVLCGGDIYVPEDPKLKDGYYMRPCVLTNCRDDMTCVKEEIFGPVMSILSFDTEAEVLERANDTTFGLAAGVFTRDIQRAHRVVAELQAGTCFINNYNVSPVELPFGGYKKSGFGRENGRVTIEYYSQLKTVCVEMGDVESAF

With `C[N+](C)(C)CC=O` [BAL], the dissociation constant Kd in assay [1] stood at 171 ± 35 µM.

In the case of `CN(C)CCCC=O` [DMABAL], the “Ki” value in assay [2] was 10880 ± 1350 µM.

Consider `N=C(N)NCCCC=O` [GBAL], for which the “Ki” value in assay [2] is 7230 ± 1650 µM.

Turning to `NC(=O)c1ccc[n+]([C@@H]2O[C@H](COP(=O)([O-])OP(=O)(O)OC[C@H]3O[C@@H](n4cnc5c(N)ncnc54)[C@H](O)[C@@H]3O)[C@@H](O)[C@H]2O)c1` [NAD^+], the dissociation constant (Kd) in assay [1] amounted to 16 ± 3 µM. Further, the melting temperature (Tm) in assay [3] (5 mM ligand) came to 69.5 °C.

In assay [1], `C[N+](C)(C)CCCC=O` [TMABAL, 4-(trimethylamino)butyraldehyde] gave a Kd of 6 ± 3 µM. The “Ki” value in assay [2] amounted to 2200 ± 590 µM. Besides, in assay [3] (5 mM ligand), the Tm was 63 °C.

In assay [4], `C[N+](C)(C)CCCC(=O)[O-]` [TMABA] registered a Kd of 2600 ± 200 µM. Further, the melting temperature (Tm) in assay [3] (10 mM ligand) turned out to be 66 °C.

As for `C[N+](C)(C)CCC=O` [TMAPAL, 3-(trimethylamino)propionaldehyde], the “Ki” value in assay [2] was found to be 470 ± 45 µM.

(Values after article PMC6487263, “Kinetic and structural analysis of human ALDH9A1” (Bioscience Reports, 2019).)
